Reference: US10160762B2, “6-alkyl dihydropyrazolopyrimidinone compounds as PDE2 inhibitors” (Merck Sharp & Dohme Corp., priority 2015, dated 2018)

Molecular target: T1, human PDE2A1 (Homo sapiens, UniProt O00408)
T1 construct: GST; purchased BPS Bioscience (San Diego, Calif.) 60020; host or cells: insect cells
Assay: IMAP FP PDE assay, human PDE2A1
Assay type: biochemical
Details: Lab B; read-out: Human PDE2 Ki (nM) Lab B
Method: Selectivity for PDE2, as compared to other PDE families, was assessed using the IMAP® technology. Human PDE10A2 enzyme was prepared from cytosolic fractions of transiently transfected HEK cells. All other PDE's were GST Tag human enzyme expressed in insect cells and were obtained from BPS Bioscience (San Diego, Calif.): PDE1A (Cat#60010), human PDE2A1 (Cat#60020), PDE3A (Cat#60030), PDE4A1A (Cat#60040), PDE5A1 (Cat#60050), PDE6C (Cat#60060), PDE7A (Cat#60070), PDE8A1 (Cat#60080), PDE9A2 (Cat#60090), PDE11A4 (Cat#60110).
Assays for PDE 1 through 11 were performed in parallel at room temperature in 384-well microtiter plates with an incubation volume of 20.2 μL. Solutions of test compounds were prepared in DMSO and serially diluted with DMSO to yield 30 μL of each of ten solutions differing by 3-fold in concentration, at 32 serial dilutions per plate. […] A Labcyte POD 810 (Labcyte, Sunnyvale, Calif.) was used to dispense 200 nL from each well of the titration plate to make eleven copies of the assay plate for each titration, one copy for each PDE enzyme. A solution of each enzyme (dilution from aliquots, sufficient to produce 20% substrate conversion) and a separate solution of FAM-labeled cAMP or FAM-labeled cGMP from Molecular Devices (Sunnyvale, Calif., product # R7506 or cGMP#R7508), at a final concentration of 50 nM were made in the assay buffer (10 mM Tris HCl, pH 7.2, 10 mM MgCl2, 0.05% NaN3 0.01% Tween-20, and 1 mM DTT). Note that the substrate for PDE2 is 50 nM FAM cAMP containing 1000 nM of cGMP. The enzyme and the substrate were then added to the assay plates in two consecutive additions of 10 μL and then shaken to mix. The reaction was allowed to proceed at room temperature for 60 minutes. A binding solution was then made from the kit components, comprised of 80% Solution A, 20% Solution B and binding reagent at a volume of 1/600 the total binding solution. The enzymatic reaction was stopped by addition of 60 μL of the binding solution to each well of the assay plate. The plates were sealed and shaken for 10 seconds. The plates were incubated at room temperature for one hour, then the parallel and perpendicular fluorescence was measured using a Tecan Genios Pro plate reader (Tecan, Switzerland). The apparent inhibition constants for the compounds against all 11 PDE's was determined from the parallel and perpendicular fluorescent readings as described for PDE10 FP assay using the following apparent KM values for each enzyme and substrate combination: PDE1A (FAM cGMP) 70 nM, human PDE2A1 (FAM cAMP) 10,000 nM, PDE3A (FAM cAMP) 50 nM, PDE4A1A (FAM cAMP) 1500 nM, PDE5A1 (FAM cGMP) 400 nM, PDE6C (FAM cGMP) 700 nM, PDE7A (FAM cAMP) 150 nM, PDE8A1 (FAM cAMP) 50 nM, PDE9A2 (FAM cGMP) 60 nM, PDE10A2 (FAM cAMP) 150 nM, PDE11A4 (FAM cAMP) 1000 nM. The intrinsic PDE2 inhibitory activity of a compound which may be used in accordance with the present invention may be determined by these assays.

T1 sequence (O00408 1-920 isoform O00408-2): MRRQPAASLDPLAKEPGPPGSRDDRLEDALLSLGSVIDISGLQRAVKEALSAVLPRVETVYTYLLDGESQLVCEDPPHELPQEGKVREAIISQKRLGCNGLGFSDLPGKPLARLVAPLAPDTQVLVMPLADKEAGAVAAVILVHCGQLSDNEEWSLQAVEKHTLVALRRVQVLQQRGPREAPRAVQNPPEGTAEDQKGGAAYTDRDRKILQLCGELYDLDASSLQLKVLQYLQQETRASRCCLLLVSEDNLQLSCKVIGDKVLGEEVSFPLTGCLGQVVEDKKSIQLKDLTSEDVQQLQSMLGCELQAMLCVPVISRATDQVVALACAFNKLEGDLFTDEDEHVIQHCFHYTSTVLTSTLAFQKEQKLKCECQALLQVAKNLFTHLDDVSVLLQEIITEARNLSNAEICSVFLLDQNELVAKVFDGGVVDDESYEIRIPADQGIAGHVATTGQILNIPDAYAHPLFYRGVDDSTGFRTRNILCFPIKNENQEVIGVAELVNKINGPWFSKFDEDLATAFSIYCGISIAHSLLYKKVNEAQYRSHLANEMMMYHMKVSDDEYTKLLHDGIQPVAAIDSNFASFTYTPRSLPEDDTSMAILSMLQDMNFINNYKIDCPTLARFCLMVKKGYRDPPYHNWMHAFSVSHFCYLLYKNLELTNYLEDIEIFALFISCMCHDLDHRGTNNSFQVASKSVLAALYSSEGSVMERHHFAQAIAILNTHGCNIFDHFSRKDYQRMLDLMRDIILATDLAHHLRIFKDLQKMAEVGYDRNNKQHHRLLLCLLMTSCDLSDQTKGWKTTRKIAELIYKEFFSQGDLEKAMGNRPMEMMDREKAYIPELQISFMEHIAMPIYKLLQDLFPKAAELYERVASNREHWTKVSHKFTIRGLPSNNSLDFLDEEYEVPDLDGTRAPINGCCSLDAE

## CNC(=O)c1nn(C(C)c2ccc(C(F)(F)F)cc2)c2nc(C)[nH]c(=O)c12 (single isomer, unassigned) [Example 264]
  Ki: 233 nM

## Cc1nc2c(c(OCC(F)(F)F)nn2C(C)c2ccc(C(F)(F)F)cc2)c(=O)[nH]1 (single isomer, unassigned) [Example 287]
  Ki: 375 nM

## Cc1nc2c(c(CO)nn2C(CC(F)(F)F)c2ccc(C(F)(F)F)cc2)c(=O)[nH]1 (single isomer, unassigned) [Example 96, (R)- or (S)-3-(Hydroxymethyl)-6-methyl-1-(3,3,3-trifluoro-1-(4-(trifluoromethyl)phenyl)propyl)-1H-pyrazolo[3,4-d]pyrimidin-4(5H)-one]
  Ki: 16 nM

## Cc1nc2c(c(CO)nn2C(C)c2ccc(OC(F)(F)F)cc2F)c(=O)[nH]1 (single isomer, unassigned) [Example 104, (R)- or (S)-1-(1-(2-Fluoro-4-(trifluoromethoxy)phenyl)ethyl)-3-(hydroxymethyl)-6-methyl-1H-pyrazolo[3,4-d]pyrimidin-4(5H)-one]
  Ki: 162 nM

## Cc1nc2c(c(C(N)=O)nn2C(C)c2ccc(C(F)(F)F)cc2)c(=O)[nH]1 (single isomer, unassigned) [Example 256]
  Ki: 86 nM

## CCC(c1ccc(C(F)(F)F)cc1)n1nc(CO)c2c(=O)[nH]c(C)nc21 (single isomer, unassigned) [Example 133, (S)- or (R)-3-(Hydroxymethyl)-6-methyl-1-(1-(4-(trifluoro-methyl)phenyl)propyl)-1H-pyrazolo[3,4-d]pyrimidin-4(5H)-one]
  Ki: 66 nM

## Cc1nc2c(c(C(F)F)nn2C(C)c2ccc(S(F)(F)(F)(F)F)cc2)c(=O)[nH]1 (single isomer, unassigned) [Example 161]
  Ki: 224 nM

## Cc1nc2c(c(CC(F)(F)F)nn2C(C)c2ccc(OC(F)(F)F)cc2)c(=O)[nH]1 (single isomer, unassigned) [Example 66, (R)- or (S)-6-Methyl-3-(2,2,2-trifluoroethyl)-1-(1-(4-(trifluoromethoxy)phenyl)ethyl)-1H-pyrazolo[3,4-d]pyrimidin-4(5H)-one]
  Ki: 327 nM

## CC(c1ccc(C(F)(F)F)cc1)n1nc(CO)c2c(=O)[nH]c(C3CC3)nc21 (single isomer, unassigned) [Example 300, (S)- or (R)-6-Cyclopropyl-3-(hydroxymethyl)-1-{1-[4-(trifluoromethyl)phenyl]ethyl}-1,5-dihydro-4H-pyrazolo[3,4-d]pyrimidin-4-one]
  Ki: 2.8 nM

## CCC(c1ccc(OC(F)(F)F)cc1)n1nc(CO)c2c(=O)[nH]c(C)nc21 (single isomer, unassigned) [Example 135, (S)- or (R)-3-(Hydroxymethyl)-6-methyl-1-(1-(4-(trifluoro-methoxy)phenyl)propyl)-1H-pyrazolo[3,4-d]pyrimidin-4(5H)-one]
  Ki: 1 nM

## Cc1nc2c(c(CO)nn2C(C)c2ccc(S(F)(F)(F)(F)F)cc2F)c(=O)[nH]1 (single isomer, unassigned) [Example 121]
  Ki: 2.8 nM

## CCCc1nc2c(c(CO)nn2C(C)c2ccc(C(F)(F)F)cc2)c(=O)[nH]1 (single isomer, unassigned) [Example 303, (R)- or (S)-3-(Hydroxymethyl)-6-propyl-1-(1-(4-(trifluoromethyl)phenyl)ethyl)-1,5-dihydro-4H-pyrazolo[3,4-d]pyrimidin-4-one]
  Ki: 4.7 nM

## CCc1nc2c(c(C(F)F)nn2C(C)c2ccc(C(F)(F)F)cc2)c(=O)[nH]1 (single isomer, unassigned) [Example 189, (R)- or (S)-3-(Difluoromethyl)-6-ethyl-1-(1-(4-(trifluoromethyl)phenyl)ethyl)-1,5-dihydro-4H-pyrazolo[3,4-d]pyrimidin-4-one]
  Ki: 330 nM

## Cc1nc2c(c(CO)nn2C(C)c2ncn(CC(F)(F)F)n2)c(=O)[nH]1 (single isomer, unassigned) [Example 147]
  Ki: > 2960 nM

## COCC(c1ccc(C(F)(F)F)cc1)n1nc(C(F)F)c2c(=O)[nH]c(C)nc21 (single isomer, unassigned) [Example 174, (S)- or (R)-3-(Difluoromethyl)-1-(2-methoxy-1-(4-(trifluoromethyl)phenyl)ethyl)-6-methyl-1H-pyrazolo[3,4-d]pyrimidin-4(5H)-one]
  Ki: 278 nM

## Cc1nc2c(c(CO)nn2C(C)c2ccc(C(F)(F)F)c(C)c2)c(=O)[nH]1 (single isomer, unassigned) [Example 107, (S)- or (R)-3-(Hydroxymethyl)-6-methyl-1-(1-(3-methyl-4-(trifluoromethyl)phenyl)ethyl)-1H-pyrazolo[3,4-d]pyrimidin-4(5H)-one]
  Ki: 4.5 nM

## Cc1nc2c(c(C(F)F)nn2C(C)c2ccc(C(F)(F)F)cc2F)c(=O)[nH]1 (single isomer, unassigned) [Example 185, (R)- or (S)-3-(Difluoro-methyl)-1-(1-(2-fluoro-4-(trifluoro-methyl)phenyl)-ethyl)-6-methyl-1H-pyrazolo[3,4-d]pyrimidin-4(5H)-one]
  Ki: 303 nM

## CC(c1ccc(C(F)(F)F)cc1)n1nc(-c2nnco2)c2c(=O)[nH]c(CC3CCCC3)nc21 (single isomer, unassigned) [Example 343, (S) or (R)-6-(Cyclopentylmethyl)-3-(1,3,4-oxadiazol-2-yl)-1-(1-(4-(trifluoromethyl)phenyl)ethyl)-1,5-dihydro-4H-pyrazolo[3,4-d] pyrimidin-4-one]
  Ki: 299 nM

## Cc1nc2c(c(CO)nn2C(C)c2ccc(OC(F)(F)F)cc2F)c(=O)[nH]1 (single isomer, unassigned) [Example 105, (S)- or (R)-1-(1-(2-Fluoro-4-(trifluoromethoxy)phenyl)ethyl)-3-(hydroxymethyl)-6-methyl-1H-pyrazolo[3,4-d]pyrimidin-4(5H)-one]
  Ki: 1.9 nM

## Cc1nc2c(c(CF)nn2C(C)c2ccc(CC(F)(F)F)cc2)c(=O)[nH]1 (single isomer, unassigned) [Example 210, (R)- or (S)-3-(Fluoromethyl)-6-methyl-1-(1-(4-(2,2,2-trifluoroethyl)phenyl)ethyl)-1H-pyrazolo[3,4-d]pyrimidin-4(5H)-one]
  Ki: 75 nM

## Cc1nc2c(c(C(F)F)nn2C(C)c2ccc(C(F)(F)C(F)(F)F)cc2)c(=O)[nH]1 (stereo not shown) [Example 165, 3-(Difluoromethyl)-6-methyl-1-(1-(4-(perfluoroethyl)phenyl)ethyl)-1H-pyrazolo[3,4-d]pyrimidin-4(5H)-one]
  Ki: 6.3 nM

## Cc1nc2c(c(CC(F)(F)F)nn2C(c2ccc(C(F)(F)F)c(F)c2)C2(C)CC2)c(=O)[nH]1 (single isomer, unassigned) [Example 62, (R)- or (S)-1-((3-Fluoro-4-(trifluoromethyl)phenyl)(1-methylcyclopropyl)methyl)-6-methyl-3-(2,2,2-trifluoroethyl)-1H-pyrazolo[3,4-d]pyrimidin-4(5H)-one]
  Ki: 1100 nM

## Cc1nc2c(c(C(F)F)nn2C(C)c2ccc(OC(F)(F)F)c(F)c2)c(=O)[nH]1 (single isomer, unassigned) [Example 170, (S)- or (R)-3-(Difluoromethyl)-1-(1-(3-fluoro-4-(trifluoromethoxy)phenyl)ethyl)-6-methyl-1H-pyrazolo [3,4-d]pyrimidin-4(5H)-one]
  Ki: 0.48 nM

## Cc1nc2c(c(NS(C)(=O)=O)nn2C(C)c2ccc(C(F)(F)F)cc2)c(=O)[nH]1 (stereo not shown) [Example 261, N-(6-Methyl-4-oxo-1-(1 (4-(trifluoromethyl)phenyl)ethyl)-4,5-dihydro-1H-pyrazolo[3,4-d]pyrimidin-3-yl)methanesulfonamide]
  Ki: ~1800 nM

## Cc1nc2c(c(CO)nn2C(C)c2ccc(OC(F)F)cc2F)c(=O)[nH]1 (single isomer, unassigned) [Example 118, (R)- or (S)-1-(1-(4-(Difluoromethoxy)-2-fluorophenypethyl)-3-(hydroxymethyl)-6-methyl-1H-pyrazolo[3,4-d]pyrimidin-4(5H)-one]
  Ki: 323 nM
